# Test results as given in patent US10399932B2, “Inhibitors of indoleamine-2,3-dioxygenase for the treatment of cancer” (BRISTOL-MYERS SQUIBB COMPANY, priority 2015, dated 2019).
# Biological target: T1, human IDO1 (Homo sapiens, UniProt P14902)
# Assay: Assessment of human IDO-1 inhibitory activity in HEK cells (human IDO1/HEK293 cells, Ehrlich reagent, absorbance at 490 nm)
# Type: cell-based
# Design: expressed in transfected cells
# Details: In Vitro Potency in the HEK Human IDO-1 Cellular Assay
# How it was run: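 Stable human IDO1-expressing HEK293 cells treated with compound for 20 h at 37 °C in phenol red-free RPMI/10% FBS. Stopped with 0.2% TCA (final) and heated 30 min at 50 °C; supernatant mixed with Ehrlich reagent, absorbance read at 490 nm. IC50 normalised to DMSO (0%) and 500 nM reference standard (100% inhibition).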
# T1 sequence (P14902 whole entry): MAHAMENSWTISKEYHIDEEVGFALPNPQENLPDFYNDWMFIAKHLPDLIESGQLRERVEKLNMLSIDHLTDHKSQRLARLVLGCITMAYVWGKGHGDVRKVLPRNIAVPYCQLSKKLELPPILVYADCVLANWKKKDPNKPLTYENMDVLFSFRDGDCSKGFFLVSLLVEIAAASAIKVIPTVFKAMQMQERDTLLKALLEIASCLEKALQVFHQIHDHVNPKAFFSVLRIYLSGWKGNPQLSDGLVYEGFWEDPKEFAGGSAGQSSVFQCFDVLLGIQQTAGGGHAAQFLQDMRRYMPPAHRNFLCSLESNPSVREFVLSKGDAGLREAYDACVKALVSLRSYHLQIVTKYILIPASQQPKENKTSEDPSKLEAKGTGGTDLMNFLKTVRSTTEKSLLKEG
row,IC50,Molecule
1,< 5 nM,"CCOc1ccc(CC(=O)Nc2cc(C(CC(=O)O)C3CC3)ccc2N(CC(C)C)C2CCCCC2)cc1 (single isomer, unassigned) [Example 1250, 3-(4-(Cyclohexyl(isobutyl)amino)-3-(2-(4-ethoxyphenyl)acetamido)phenyl)-3-cyclopropylpropanoic acid]"
2,< 5 nM,"CCC(CC(=O)O)c1ccc(N(CC(C)C)C2CCCCC2)c(Nc2ccc(Cl)c(OCC(F)F)c2)c1 (single isomer, unassigned) [Example 650, 3-(3-((4-chloro-3-(2,2-difluoroethoxy)phenyl)amino)-4-(cyclohexyl(isobutyl)amino)phenyl)pentanoic acid]"
3,< 50 nM,"CCOc1ccc(CC(=O)Nc2cc(C(COC)CC(=O)O)cc(F)c2N(CC(C)C)C2CCCCC2)cc1 (single isomer, unassigned) [Example 1173, 3-(4-(cyclohexyl(isobutyl)amino)-3-(2-(4-ethoxyphenyl)acetamido)-5-fluorophenyl)-4-methoxybutanoic acid]"
4,< 5 nM,"COCC(CC(=O)O)c1ccc(N(CC(C)C)C2CCCCC2)c(NC(=O)Cc2ccc(Cl)cc2F)c1 (single isomer, unassigned) [Example 1246, 3-(3-(2-(4-Chloro-2-fluorophenyl)acetamido)-4-(cyclohexyl(isobutyl)amino)phenyl)-4-methoxybutanoic acid]"
5,> 50 nM,CCC(CC(=O)O)c1ccc(N(CCC(C)C)C2CCCCC2)c(NC(=O)Cc2ccc(F)cc2)c1 (racemic) [Example 1089]
6,< 5 nM,"CCC(CC(=O)O)c1cc(F)c(N(CC(C)C)CC(C)C)c(Nc2ccc(F)cc2)c1 (single isomer, unassigned) [Example 116, 3-(4-(diisobutylamino)-3-fluoro-5-((4-fluorophenyl)amino)phenyl)pentanoic acid]"
7,> 50 nM,"CCC(CC(=O)O)c1ccc(N2CC3CC2CN3Cc2ccccc2)c(NC(=O)Nc2ccc(C)cc2)c1 (single isomer, unassigned) [667 E1]"
8,< 5 nM,"CCOc1ccc(Nc2cc([C@H](CC)CC(=O)O)ccc2N(CC)C2CCOCC2)cc1 (single isomer, unassigned) [Example 514]"
9,< 5 nM,CCC(CC(=O)O)c1ccc(N(CC(C)C)C2CCCCC2)c(NC(=O)Cc2ccc(C#N)cc2)c1 (racemic) [Example 1086]
10,> 50 nM,"CCC(CC(=O)O)c1ccc(N2CCC[C@H]2C(C)(C)O)c(Nc2cnc(OC)nc2)c1 (single isomer, unassigned) [Example 841]"
11,> 50 nM,"CCOc1ncc(Nc2cc(C(C)CC(=O)O)ccc2N2CCC[C@H]2C(C)(C)O)cn1 (single isomer, unassigned) [Example 806]"
12,< 5 nM,"CCC(CC(=O)O)c1cc(NC(=O)Nc2cnc(OC)nc2)c(N(CC(C)C)CC(C)C)cc1F (single isomer, unassigned) [Example 1142, 3-(4-(Diisobutylamino)-2-fluoro-5-(3-(2-methoxypyrimidin-5-yl)ureido)phenyl)pentanoic acid]"
13,> 50 nM,"CCC(CC(=O)O)c1ccc(N2CCC[C@H]2C(C)(C)O)c(NC(=O)Nc2ccc(Cl)cc2F)c1 (single isomer, unassigned) [Example 828]"

# Biological target: T1, human IDO1
# Assay: Assessment of human IDO-1 inhibitory activity in Hela cells (Interferon-gamma activated, Ehrlich reagent, absorbance at 490 nm)
# Type: cell-based
# Design: endogenous in cells; host or cells: HeLa cells stimulated with interferon-gamma
# Details: 18 hours
# Protocol: Exemplary compounds were tested for inhibition of IDO activity.
# HeLa cells were seeded at 20,000 cells per 30 µL per well with RPMI/phenol red free media containing 10% FBS in a 384-well tissue culture plate (black with clear bottoms). 50 nL of compound was added to cells and incubated at 37° C. for one hour. 20 μL of the recombinant human Interferon-gamma (R&D System, Cat. #285-IF, at final concentration of 10 ng/ml) or recombinant murine Interferon-gamma (PEPROTECH® Inc., Cat. #315-05, final concentration of 5 ng/ml) was added to activate IDO signaling. The cells were incubated for 18 hours in 37° C. incubator with 5% CO2.
# Compound treatment was stopped by adding 5 μl trichloroacetic acid to a final concentration of 3%. Subsequently, the cell plate was further incubated at 50° C. for 30 minute. An equal volume supernatant (20 μL) and 2% (w/v) Ehrlich reagent (4-dimethylaminobenzaldehyde) in glacial acetic acid were mixed in a new clear bottom 384-well plate. This plate was incubated at room temperature for 30 minutes. Absorbance at 490 nm was measured on Envision plate reader.
# Compound IC50 values were calculated using counts from unstimulated (no INF-gamma treatment) wells as 100% inhibition. INF-gamma treatment without compound treatment as 0% inhibition.
row,IC50,Molecule
1,> 50 nM,"CC(CC(=O)O)c1ccc(N2C[C@@H](C)O[C@@H](C)C2)c(NC(=O)Nc2ccc(C#N)cc2)c1 (single isomer, unassigned) [Example 752]"
2,< 5 nM,"CCN(c1ccc(C(CC(=O)O)C2CC2)cc1Nc1ccc(Cl)cc1)C1CCOCC1 (single isomer, unassigned) [Example 33 Enantiomer 2, 3-(3-((4-Chlorophenyl)amino)-4-(ethyl(tetrahydro-2H-pyran-4-yl)amino)phenyl)-3-cyclopropylpropanoic acid]"
3,> 50 nM,"CCOc1ncc(Nc2cc(C(CC(=O)O)C3CC3)ccc2N2C[C@@H](C)O[C@@H](C)C2)cn1 (single isomer, unassigned) [Example 249]"
4,> 50 nM,"COCC(CC(=O)O)c1ccc(N2CCOC[C@H]2C(C)C)c(NC(=O)Nc2ccc(C#N)cc2)c1 (single isomer, unassigned) [Example 915]"
5,> 50 nM,"CCOc1ncc(Nc2cc([C@H](COC)CC(=O)O)ccc2N2CCOCC2CC)cn1 (single isomer, unassigned) [Example 1307]"
6,< 50 nM,"CCC(CC(=O)O)c1ccc(N(CCOC)C2CCOCC2)c(NC(=O)Nc2ccc(Cl)cc2F)c1 (single isomer, unassigned) [Example 1266, 3-(3-(3-(4-chloro-2-fluorophenyl)ureido)-4-((2-methoxyethyl) (tetrahydro-2H-pyran-4-yl)amino)phenyl)pentanoic acid]"
7,< 5 nM,"CCCN(c1ccc([C@@H](COC)CC(=O)O)cc1Nc1cnc(OCC2CC2)nc1)C1CCOCC1 (single isomer, unassigned) [Example 543]"
8,> 50 nM,"CCOc1ncc(Nc2cc(C(COC)CC(=O)O)ccc2N2CCOC[C@@H]2C(C)C)cn1 (single isomer, unassigned) [Example 935]"
9,< 5 nM,"CCC(CC(=O)O)c1cc(Nc2cnc(OC)nc2)c(N(CC)C2CCOCC2)cc1F (single isomer, unassigned) [Example 864, 3-(4-(ethyl(tetrahydro-2H-pyran-4-yl)amino)-2-fluoro-5-((2-methoxypyrimidin-5-yl)amino)phenyl)pentanoic acid]"
10,> 50 nM,"CCOc1ncc(Nc2cc(C(COC)CC(=O)O)ccc2N(C)C2CCOCC2)cn1 (single isomer, unassigned) [Example 885, 3-(3-((2-ethoxypyrimidin-5-yl)amino)-4-(methyl (tetrahydro-2H-pyran-4-yl)amino)phenyl)-4-methoxybutanoic acid]"
11,< 50 nM,"COCC(CC(=O)O)c1ccc(N(C)C2CCOCC2)c(Nc2ccc(C#N)cc2F)c1 (single isomer, unassigned) [Example 883, 3-(3-((4-cyano-2-fluorophenyl)amino)-4-(methyl(tetrahydro-2H-pyran-4-yl)amino)phenyl)-4-methoxybutanoic acid]"
12,< 50 nM,"CCC(CC(=O)O)c1ccc(N(CC)C2CCOC2)c(NC(=O)Nc2ccc(Cl)cc2F)c1 (single isomer, unassigned) [948 D2]"
13,< 5 nM,"(S)-3-(3-((4-chlorophenyl)amino)-4-((1,1-dioxidotetrahydro-2H-thiopyran-4-yl)(ethyl)amino)phenyl)-4-isopropoxybutanoic acid [Example 325]"
14,< 50 nM,"COCCN(c1ccc(C(COC)CC(=O)O)cc1Nc1ccc(C#N)cc1)C1CCOCC1 (single isomer, unassigned) [Example 259, 3-(3-((4-cyanophenyl)amino)-4-((2-methoxyethyl)(tetrahydro-2H-pyran-4-yl)amino)phenyl)-4-methoxybutanoic acid]"
15,> 50 nM,(R)-3-(4-(ethyl(tetrahydro-2H-pyran-4-yl)amino)-3-((2-(tetrahydro-2H-pyran-4-yl)pyrimidin-5-yl)amino)phenyl)-4-methoxybutanoic acid [Example 403]
16,< 5 nM,"CCN(c1ccc([C@@H](COC)CC(=O)O)cc1Nc1cccc(OC(F)(F)C(F)F)c1)C1CCOCC1 [Example 361, (S)-3-(4-(ethyl(tetrahydro-2H-pyran-4-yl)amino)-3-((3-(1,1,2,2-tetrafluoroethoxy)phenyl)amino)phenyl)-4-methoxybutanoic acid]"
17,< 50 nM,"CCN(c1ccc(C(CC(=O)O)C2CC2)cc1Nc1cnc(OC)nc1)C1CCOCC1 (single isomer, unassigned) [Example 38, 3-cyclopropyl-3-(4-(ethyl(tetrahydro-2H-pyran-4-yl)amino)-3-((2-methoxypyrimidin-5-yl)amino)phenyl) propanoic acid]"
18,< 50 nM,"CCC1COCCN1c1ccc([C@H](COC)CC(=O)O)cc1Nc1ccc(Cl)cc1 (single isomer, unassigned) [Example 1308]"
19,< 50 nM,"CCOc1ncc(Nc2cc(C(CC)CC(=O)O)ccc2N(C)C2CCOCC2)cn1 (single isomer, unassigned) [Example 872, 3-(3-((2-ethoxypyrimidin-5-yl)amino)-4-(methyl (tetrahydro-2H-pyran-4-yl)amino)phenyl)pentanoic acid]"
20,< 50 nM,"CCOc1ncc(Nc2cc(C(CC)CC(=O)O)ccc2N(CC)C2CCOC2)cn1 (single isomer, unassigned) [Example 945 D2, 3-(3-((2-Ethoxypyrimidin-5-yl)amino)-4-(ethyl (tetrahydrofuran-3-yl)amino)phenyl)pentanoic acid]"
21,< 50 nM,"CCN(c1ccc(C(CC(=O)O)C2CC2)cc1Nc1ccc(OC)nc1)C1CCS(=O)(=O)CC1 (single isomer, unassigned) [Example 346, 3-cyclopropyl-3-(4-((1,1-dioxidotetrahydro-2H-thiopyran-4-yl)(ethyl)amino)-3-((6-methoxypyridin-3-yl)amino)phenyl)propanoic acid]"
